The values below come from article PMC11714206, “Massively Parallel Screening of Toll/Interleukin‐1 Receptor (TIR)‐Derived Peptides Reveals Multiple Toll‐Like Receptors (TLRs)‐Targeting Immunomodulatory Peptides” (Advanced Science, 2024).

This test concerns the target T1, MyD88^TIR (Homo sapiens, UniProt Q99836).
T1 construct: MyD88 (residues 148–296); 6xHis; made in house; host or cells: E. coli BL21 (DE3)
The test can be described thus: T‐Surf phage library (P8 and P3) selection against MyD88^TIR, four rounds, NGS read counts. The class given is binding. As to conditions: for P3_MyD88 Rank (after) / P3_MyD88 Rank (before): P3 library; for P8_MyD88 Rank (after) / P8_MyD88 Rank (before): P8 library; for Population: P8_MyD88 pool: P8 T-Surf phage library, 4th round of selection against MyD88 TIR, share of NGS reads. In outline: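 P8 and P3 T‐Surf libraries panned against plate-coated TIR domains (5 µg mL^−1), 1 h binding at RT, acid elution and TG1/helper-phage amplification per round. After four rounds, pools were PCR-barcoded and sequenced (NovaSeq, 100 bp paired-end, Phred ≥30); peptides ranked by read counts.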

Where [1] appears, read: selection against MyD88, rank after grouping.
Setting [2] is: selection against MyD88, rank before grouping.
[3] abbreviates: selection against MyD88, rank by count after grouping.
[4] abbreviates: selection against MyD88, rank by count before grouping.
The mark [5] stands for this setting: selection against MyD88 TIR, rank by count after grouping.
Setting [6] is: selection against MyD88 TIR, rank by count before grouping.
The mark [7] stands for this setting: 4R selection against MyD88, rank after grouping.
The mark [8] stands for this setting: 4R selection against MyD88, rank before grouping.
[9] abbreviates: P8_MyD88: rank by count after grouping.
The mark [10] stands for this setting: P8_MyD88: rank by count before grouping.
Setting [11] is: P8_MyD88: rank by NGS read count after grouping.
Where [12] appears, read: P8_MyD88: rank by NGS read count before grouping.

T1 sequence (Q99836 148-296): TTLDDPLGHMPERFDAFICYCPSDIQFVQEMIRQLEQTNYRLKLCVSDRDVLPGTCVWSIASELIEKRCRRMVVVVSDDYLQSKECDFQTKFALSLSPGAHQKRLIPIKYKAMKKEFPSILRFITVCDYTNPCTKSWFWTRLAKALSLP

On to PEKDNGGEIAFINNLV, for which the “P3_MyD88 Rank (after)” value under setting [1] is 547. Moreover, under setting [2], the “P3_MyD88 Rank (before)” value is given as 2710.

As to PEKDNGGENAFINTL, the “P3_MyD88 Rank (after)” value under setting [3] is given as 731. Also, under setting [4], the “P3_MyD88 Rank (before)” value is given as 2715.

PEKDNGGENALSITL: under setting [5], the “P3_MyD88 Rank (after)” value came out at 218. The “P3_MyD88 Rank (before)” value under setting [6] came out at 1121.

Regarding PEKIMAAKMRLSITL, the “P3_MyD88 Rank (after)” value under setting [5] came to 274. Further, the “P3_MyD88 Rank (before)” value under setting [6] came to 2702.

Consider PENDNGGENAFINHIV, for which, under setting [7], the “P3_MyD88 Rank (after)” value was found to be 635. Further, under setting [8], the “P3_MyD88 Rank (before)” value stood at 2700.

Regarding PGYHWLEWEYFVGIED, under setting [9], the “Rank (after)” value worked out at 442. Further, under setting [10], the “Rank (before)” value was 1195.

PHDLDWLYERPVRLIL: under setting [11], the “Rank (after)” value is listed as 980. Also, under setting [12], the “Rank (before)” value is reported as 3412.

Turning to PKVGSWRQALEKAGKL, the “P3_MyD88 Rank (after)” value under setting [1] is given as 560. Also, the “P3_MyD88 Rank (before)” value under setting [2] came to 2763.

On to PNLRTKVLNYLMRTKT, for which the “P8_MyD88 Rank (after)” value under setting [3] is given as 705. Also, the “P8_MyD88 Rank (before)” value under setting [4] worked out at 3508.

As to PQAPEWSYERLVSLIL, the “Rank (after)” value under setting [11] is 954. Further, the “Rank (before)” value under setting [12] worked out at 3417.

Regarding PQDLAWLYERPLSLIL, the “Rank (after)” value under setting [11] amounted to 1015. Besides, the “Rank (before)” value under setting [12] is on record as 3424.

On to PQDLAWYYVRLVSLIL, for which the “P8_MyD88 Rank (after)” value under setting [7] is reported as 583. Further, under setting [8], the “P8_MyD88 Rank (before)” value stood at 3423.

Take PQDLDWFYDRLVSLIL: under setting [7], the “P8_MyD88 Rank (after)” value is reported as 589. Besides, the “P8_MyD88 Rank (before)” value under setting [8] is reported as 3431.

In the case of PQDLDWFYERLESLF, the “Rank (after)” value under setting [11] is reported as 1019. For the same sequence, the “Rank (before)” value under setting [12] came out at 3427.

The sequence PQDLDWFYERLVSLL yielded a Population of 0.0189%. Besides, the “Rank (after)” value under setting [9] was 101. In addition, the “Rank (before)” value under setting [10] was 120.

In the case of PQDLDWFYERLVSQM, under setting [3], the “P8_MyD88 Rank (after)” value is 716. For the same sequence, the “P8_MyD88 Rank (before)” value under setting [4] is listed as 3426.

On to PQDLEWFYERGEPDS, for which the “P8_MyD88 Rank (after)” value under setting [3] turned out to be 751. Besides, the “P8_MyD88 Rank (before)” value under setting [4] is listed as 3445.

Sequence PQDLEWFYERLFSQM showed a Population of 0.0227%. The “Rank (after)” value under setting [9] stood at 96. Further, the “Rank (before)” value under setting [10] turned out to be 102.

For PQDLEWFYERLVTHVLLRHL, under setting [1], the “P8_MyD88 Rank (after)” value was 566. In addition, the “P8_MyD88 Rank (before)” value under setting [2] was determined as 3461.

For the sequence PQDLEWFYERMVGLIL, the “Rank (after)” value under setting [11] came to 879. Also, under setting [12], the “Rank (before)” value is 3429.

With PQDLEWLYERLVRLIL, the “P8_MyD88 Rank (after)” value under setting [5] was found to be 287. Besides, under setting [6], the “P8_MyD88 Rank (before)” value turned out to be 3472.

Take PQDLGWFYERLISQILK: the “Rank (after)” value under setting [9] amounted to 386. For the same sequence, the “Rank (before)” value under setting [10] is on record as 1201.

Turning to PQDLGWYYERLVSLIL, under setting [11], the “Rank (after)” value was 888. Besides, under setting [12], the “Rank (before)” value was 3421.

The sequence PQDLQWFYERLVSLI showed a Population of 0.00694%. Further, the “Rank (after)” value under setting [9] is 150. Further, under setting [10], the “Rank (before)” value is given as 186.

In the case of PQDLVWFFEGLVSLIL, the “Rank (after)” value under setting [11] worked out at 952. For the same sequence, under setting [12], the “Rank (before)” value is on record as 3420.

Regarding PQDQEWFYERIVSLP, the “P8_MyD88 Rank (after)” value under setting [3] was 726. Besides, the “P8_MyD88 Rank (before)” value under setting [4] is given as 3492.

Regarding PQDQEWFYERMVSLIL, the “P8_MyD88 Rank (after)” value under setting [1] came out at 517. For the same sequence, the “P8_MyD88 Rank (before)” value under setting [2] was 3491.

For PQDRERFFERLFSLF, the “Rank (after)” value under setting [11] stood at 998. For the same sequence, the “Rank (before)” value under setting [12] is on record as 3490.

For PQELECIYKRLVSLIL, under setting [11], the “Rank (after)” value was determined as 1011. For the same sequence, the “Rank (before)” value under setting [12] is recorded as 3504.

Consider PQELEWCYERLVSLIL, for which the “P8_MyD88 Rank (after)” value under setting [5] is 240. Under setting [6], the “P8_MyD88 Rank (before)” value was 3497.

For PQELEWFHKRLVRLIL, the “Rank (after)” value under setting [9] was 455. Besides, under setting [10], the “Rank (before)” value turned out to be 3496.

Regarding PQELEWFYERPVSLML, under setting [9], the “Rank (after)” value is 458. Besides, the “Rank (before)” value under setting [10] was found to be 3506.

As to PQEQVWFYERQVSLIV, the “P8_MyD88 Rank (after)” value under setting [1] turned out to be 533. Further, the “P8_MyD88 Rank (before)” value under setting [2] stood at 3500.

Regarding PQEREWFYERLVSLIL, under setting [11], the “Rank (after)” value is 991. Under setting [12], the “Rank (before)” value came to 3499.
